Measurements taken from patent US6461997B1, “Triazole sulfones having herbicidal activity” (Monsanto Technology LLC, priority 1999, dated 2002).

How the values were obtained:
[1] = system: BRAPP (broadleaf signalgrass); assay: Pre-plant incorporated (PPI) herbicidal activity, warm season; assay type: in vivo, Brachiaria platyphylla
Protocol: (§1) In another set of tests, the pre-plant incorporated (PPI) activity of compounds of this invention was evaluated on the same species as for the pre-emergence tests described above. In the PPI tests the following procedure, designed to simulate PPI application, was used.
(§2) A pre-prepared topsoil mixture (described above) was placed in a pot and compacted to a depth of 1.0 to 1.25 cm from the top of the pot. Seeds of each of several monocotyledonous and dicotyledonous annual plant species were placed on top of the soil. A sufficient quantity of soil to cover the seeds and level fill the pot was weighed into an open container. A known amount of the test compound was dissolved or suspended in an organic solvent and applied by spraying to this cover soil. The cover soil was thoroughly mixed to distribute the test compound throughout the cover soil, and was then applied as a cover layer over the seeds. Untreated soil was used as a cover layer for control pots. After treatment the plants were placed in a greenhouse where they received 0.64 cm of overhead irrigation. All subsequent watering consisted of a light overhead mist and/or subirrigation as needed for germination and growth. Tables 9 and 10 below relate to warm season plant species which were placed after pre-emergence treatment in a greenhouse with a 30/21° C. day/night temperature regime. Tables 11 and 12 below relates to cool season plant species placed after pre-emergence treatment in a greenhouse or growth chamber with an 18/13° C. day/night temperature regime. Only the compounds of Examples 1, 6, 8, 11, 13 and 15-20 were included in PPI tests.
(§3) Approximately 14 days after planting and treating, the plants were observed and herbicidal efficacy recorded as percent inhibition by comparison with untreated plants.

[2] = system: GALAP (catchweed bedstraw); assay: Pre-plant incorporated (PPI) herbicidal activity, cool season; assay type: in vivo, Galium aparine
Protocol: as §1, §2, §3

POLCO (wild buckwheat) = assay: as above; assay type: in vivo, Polygonum convolvulus
Protocol: as §1, §2, §3

STEME (common chickweed) = assay: as above; assay type: in vivo, Stellaria media
Protocol: as §1, §2, §3

LOLMG (annual ryegrass) = assay: as above; assay type: in vivo, Lolium multiflorum
Protocol: as §1, §2, §3

[3] = system: AGSST (creeping bentgrass); assay: as above; assay type: in vivo, Agrostis stolonifera
Protocol: as §1, §2, §3

SETVI (green foxtail) = assay: Post-emergence herbicidal activity, cool season; assay type: in vivo, Setaria viridis; conditions: abraded plants sprayed at 300, 100, 30 and 10 g/ha; about 14 days after treatment
Summary of the method: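 Abraded seedling foliage receives a spray of test compound at four rates, 300 to 10 g/ha, in 50:50 acetone/water at 3,100 l/ha. After about 14 days in an 18/13° C. day/night greenhouse, inhibition is scored against abraded untreated controls and expressed as GR80.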

corn (ZEAMX) = assay: Selectivity test, PPI, warm season crop; assay type: in vivo, Zea mays; conditions: PPI application
Protocol: as §2, §3
(§4) Additional pre-emergence and PPI tests were conducted by the procedures described above, on warm and cool season weed species in the presence of crop species, to assess herbicidal selectivity. Crop species included in warm season tests were corn (Zea mays, ZEAMX), rice (Oryza sativa, ORYSA) and soybean (Glycine max, GLYMX). Crop species included in cool season tests were wheat (Triticum aestivum, TRZAW), barley (Hordeunm vulgare, HORVX) and oilseed rape (Brassica napus, BRSNS).
(§5) Tables 15 and 16 relate to pre-emergence and PPI tests respectively on warm season species. Table 17 relates to pre-emergence tests on cool season species.

rice (ORYSA) = assay: Selectivity test, PPI, warm season crop; assay type: in vivo, Oryza sativa; conditions: PPI application
Protocol: as §2, §3, §4, §5

barley (HORVX) = assay: Selectivity test, PPI, cool season crop; assay type: in vivo, Hordeunm vulgare; conditions: PPI application
Protocol: as §2, §3, §4, §5

[4] = pre-plant incorporated, lowest tested rate with 80% or greater inhibition, about 14 days
[5] = weed, PPI application, 100 g/ha
[6] = weed, PPI application, 300 g/ha
[7] = weed, PPI application, 900 g/ha

Structure (SMILES): CCN(CC)C(=O)n1cnc(S(=O)(=O)C(F)(F)Br)n1 [Example 1, 3-(bromodifluoromethylsulfonyl)-1-(N,N-diethylcarbamoyl)-1,2,4-triazole]
- inhibition at 10 g/ha ([1]; Urochloa platyphylla, PPI application, 10 g/ha, read-out: Percent inhibition BRAPP): 0%
- inhibition at 30 g/ha ([1]; Urochloa platyphylla, PPI application, 30 g/ha, read-out: Percent inhibition BRAPP): 0%
- inhibition at 100 g/ha ([1]; Urochloa platyphylla, PPI application, 100 g/ha, read-out: Percent inhibition BRAPP): 100%
- inhibition at 300 g/ha ([1]; Urochloa platyphylla, PPI application, 300 g/ha, read-out: Percent inhibition BRAPP): 90%
- inhibition at 900 g/ha ([1]; Urochloa platyphylla, PPI application, 900 g/ha, read-out: Percent inhibition BRAPP): 100%
- PPI activity GR80, BRAPP [1, 4]: 100 g/ha
- inhibition at 30 g/ha ([2]; Galium aparine, weed, PPI application, 30 g/ha, read-out: Percent inhibition GALAP): 70%
- inhibition at 100 g/ha ([2]; Galium aparine, weed, PPI application, 100 g/ha, read-out: Percent inhibition GALAP): 100%
- inhibition at 300 g/ha ([2]; Galium aparine, weed, PPI application, 300 g/ha, read-out: Percent inhibition GALAP): 100%
- inhibition at 900 g/ha ([2]; Galium aparine, weed, PPI application, 900 g/ha, read-out: Percent inhibition GALAP): 100%
- PPI activity GR80, GALAP [2, 4]: 100 g/ha
- inhibition at 30 g/ha (POLCO (wild buckwheat); Fallopia convolvulus, weed, PPI application, 30 g/ha, read-out: Percent inhibition POLCO): 30%
- inhibition at 100 g/ha (POLCO (wild buckwheat); Fallopia convolvulus, weed, PPI application, 100 g/ha, read-out: Percent inhibition POLCO): 90%
- inhibition at 300 g/ha (POLCO (wild buckwheat); Fallopia convolvulus, weed, PPI application, 300 g/ha, read-out: Percent inhibition POLCO): 100%
- inhibition at 900 g/ha (POLCO (wild buckwheat); Fallopia convolvulus, weed, PPI application, 900 g/ha, read-out: Percent inhibition POLCO): 100%
- PPI activity GR80, POLCO (POLCO (wild buckwheat); [4]): * (activity observed, at least at highest rate, but <80% inhibition)
- inhibition at 30 g/ha (STEME (common chickweed); Stellaria media, weed, PPI application, 30 g/ha, read-out: Percent inhibition STEME): 60%
- inhibition at 100 g/ha (STEME (common chickweed); Stellaria media, weed, PPI application, 100 g/ha, read-out: Percent inhibition STEME): 100%
- inhibition at 300 g/ha (STEME (common chickweed); Stellaria media, weed, PPI application, 300 g/ha, read-out: Percent inhibition STEME): 99%
- inhibition at 900 g/ha (STEME (common chickweed); Stellaria media, weed, PPI application, 900 g/ha, read-out: Percent inhibition STEME): 95%
- PPI activity GR80, STEME (STEME (common chickweed); [4]): 100 g/ha
- inhibition at 30 g/ha (LOLMG (annual ryegrass); Lolium multiflorum, weed, PPI application, 30 g/ha, read-out: Percent inhibition LOLMG): 95%
- inhibition at 100 g/ha (LOLMG (annual ryegrass); Lolium multiflorum, weed, PPI application, 100 g/ha, read-out: Percent inhibition LOLMG): 95%
- inhibition at 300 g/ha (LOLMG (annual ryegrass); Lolium multiflorum, weed, PPI application, 300 g/ha, read-out: Percent inhibition LOLMG): 100%
- inhibition at 900 g/ha (LOLMG (annual ryegrass); Lolium multiflorum, weed, PPI application, 900 g/ha, read-out: Percent inhibition LOLMG): 100%
- PPI activity GR80, LOLMG (LOLMG (annual ryegrass); [4]): 300 g/ha
- inhibition at 30 g/ha ([3]; Agrostis stolonifera, weed, PPI application, 30 g/ha, read-out: Percent inhibition AGSST): 100%
- inhibition at 100 g/ha ([3]; Agrostis stolonifera, weed, PPI application, 100 g/ha, read-out: Percent inhibition AGSST): 100%
- inhibition at 300 g/ha ([3]; Agrostis stolonifera, weed, PPI application, 300 g/ha, read-out: Percent inhibition AGSST): 100%
- inhibition at 900 g/ha ([3]; Agrostis stolonifera, weed, PPI application, 900 g/ha, read-out: Percent inhibition AGSST): 100%
- PPI activity GR80, AGSST [3, 4]: 30 g/ha
- Post-emergence activity GR80, SETVI (SETVI (green foxtail)): [empty]
- inhibition at 10 g/ha (corn (ZEAMX); Zea mays, 10 g/ha, read-out: Percent inhibition ZEAMX): 0%
- inhibition at 30 g/ha (corn (ZEAMX); Zea mays, 30 g/ha, read-out: Percent inhibition ZEAMX): 0%
- inhibition at 100 g/ha (corn (ZEAMX); Zea mays, 100 g/ha, read-out: Percent inhibition ZEAMX): 0%
- inhibition at 300 g/ha (corn (ZEAMX); Zea mays, 300 g/ha, read-out: Percent inhibition ZEAMX): 25%
- inhibition at 900 g/ha (corn (ZEAMX); Zea mays, 900 g/ha, read-out: Percent inhibition ZEAMX): 70%
- inhibition at 10 g/ha (rice (ORYSA); Oryza sativa, 10 g/ha, read-out: Percent inhibition ORYSA): 0%
- inhibition at 30 g/ha (rice (ORYSA); Oryza sativa, 30 g/ha, read-out: Percent inhibition ORYSA): 0%
- inhibition at 100 g/ha (rice (ORYSA); Oryza sativa, 100 g/ha, read-out: Percent inhibition ORYSA): 40%
- inhibition at 300 g/ha (rice (ORYSA); Oryza sativa, 300 g/ha, read-out: Percent inhibition ORYSA): 60%
- inhibition at 900 g/ha (rice (ORYSA); Oryza sativa, 900 g/ha, read-out: Percent inhibition ORYSA): 90%
- inhibition at 30 g/ha (barley (HORVX); Hordeum vulgare, 30 g/ha, read-out: Percent inhibition HORVX): 0%
- inhibition at 100 g/ha (barley (HORVX); Hordeum vulgare, 100 g/ha, read-out: Percent inhibition HORVX): 10%
- inhibition at 300 g/ha (barley (HORVX); Hordeum vulgare, 300 g/ha, read-out: Percent inhibition HORVX): 30%
- inhibition at 900 g/ha (barley (HORVX); Hordeum vulgare, 900 g/ha, read-out: Percent inhibition HORVX): 50%

Structure (SMILES): CCN(CC)C(=O)n1cnc(S(=O)(=O)C(F)(F)SC)n1 [Example 9]
- Percent inhibition BRAPP ([1]; PPI application, 30 g/ha): 70%
- Percent inhibition BRAPP ([1]; PPI application, 100 g/ha): 80%
- Percent inhibition BRAPP ([1]; PPI application, 300 g/ha): 100%
- Percent inhibition BRAPP ([1]; PPI application, 900 g/ha): 100%
- Percent inhibition GALAP ([2]; weed, PPI application, 30 g/ha): 100%
- Percent inhibition GALAP [2, 5]: 70%
- Percent inhibition GALAP [2, 6]: 100%
- Percent inhibition GALAP [2, 7]: 100%
- Percent inhibition POLCO (POLCO (wild buckwheat); weed, PPI application, 30 g/ha): 0%
- Percent inhibition POLCO (POLCO (wild buckwheat); [5]): 0%
- Percent inhibition POLCO (POLCO (wild buckwheat); [6]): 95%
- Percent inhibition POLCO (POLCO (wild buckwheat); [7]): 100%
- Percent inhibition STEME (STEME (common chickweed); weed, PPI application, 30 g/ha): 70%
- Percent inhibition STEME (STEME (common chickweed); [5]): 95%
- Percent inhibition STEME (STEME (common chickweed); [6]): 100%
- Percent inhibition STEME (STEME (common chickweed); [7]): 100%
- Percent inhibition LOLMG (LOLMG (annual ryegrass); weed, PPI application, 30 g/ha): 60%
- Percent inhibition LOLMG (LOLMG (annual ryegrass); [5]): 100%
- Percent inhibition LOLMG (LOLMG (annual ryegrass); [6]): 100%
- Percent inhibition LOLMG (LOLMG (annual ryegrass); [7]): 100%
- Percent inhibition AGSST ([3]; weed, PPI application, 30 g/ha): 99%
- Percent inhibition AGSST [3, 5]: 100%
- Percent inhibition AGSST [3, 6]: 100%
- Percent inhibition AGSST [3, 7]: 100%
- Post-emergence activity GR80, SETVI (SETVI (green foxtail)): [empty]
- Percent inhibition ZEAMX (corn (ZEAMX); 30 g/ha): 0%
- Percent inhibition ZEAMX (corn (ZEAMX); 100 g/ha): 10%
- Percent inhibition ZEAMX (corn (ZEAMX); 300 g/ha): 90%
- Percent inhibition ZEAMX (corn (ZEAMX); 900 g/ha): 99%
- Percent inhibition ORYSA (rice (ORYSA); 30 g/ha): 0%
- Percent inhibition ORYSA (rice (ORYSA); 100 g/ha): 0%
- Percent inhibition ORYSA (rice (ORYSA); 300 g/ha): 70%
- Percent inhibition ORYSA (rice (ORYSA); 900 g/ha): 95%
- Percent inhibition HORVX (barley (HORVX); 30 g/ha): 0%
- Percent inhibition HORVX (barley (HORVX); 100 g/ha): 0%
- Percent inhibition HORVX (barley (HORVX); 300 g/ha): 10%
- Percent inhibition HORVX (barley (HORVX); 900 g/ha): 40%
